Source: US11066372B2, “Deuterated benzimidazole compound and medical use thereof” (Sumitomo Dainippon Pharma Co., Ltd., priority 2017, dated 2021)

Experiments:
human SCN9A (Nav 1.7) = human SCN9A (Nav 1.7) (Homo sapiens, UniProt Q15858); experiment: Measurement of Na ion current (Nav 1.7) by automated patch clamp assay in cells stably-expressing human SCN9A; format: cell-based; conditions: compound concentration 10 μmol/L, holding potential inactivating 50% Nav 1.7 channel (around −60 mV); for inhibition at 10 µM: read-out: Inhibitory rate (%) of Na ion current
human SCN9A (Nav 1.7), sequence (Q15858 whole entry): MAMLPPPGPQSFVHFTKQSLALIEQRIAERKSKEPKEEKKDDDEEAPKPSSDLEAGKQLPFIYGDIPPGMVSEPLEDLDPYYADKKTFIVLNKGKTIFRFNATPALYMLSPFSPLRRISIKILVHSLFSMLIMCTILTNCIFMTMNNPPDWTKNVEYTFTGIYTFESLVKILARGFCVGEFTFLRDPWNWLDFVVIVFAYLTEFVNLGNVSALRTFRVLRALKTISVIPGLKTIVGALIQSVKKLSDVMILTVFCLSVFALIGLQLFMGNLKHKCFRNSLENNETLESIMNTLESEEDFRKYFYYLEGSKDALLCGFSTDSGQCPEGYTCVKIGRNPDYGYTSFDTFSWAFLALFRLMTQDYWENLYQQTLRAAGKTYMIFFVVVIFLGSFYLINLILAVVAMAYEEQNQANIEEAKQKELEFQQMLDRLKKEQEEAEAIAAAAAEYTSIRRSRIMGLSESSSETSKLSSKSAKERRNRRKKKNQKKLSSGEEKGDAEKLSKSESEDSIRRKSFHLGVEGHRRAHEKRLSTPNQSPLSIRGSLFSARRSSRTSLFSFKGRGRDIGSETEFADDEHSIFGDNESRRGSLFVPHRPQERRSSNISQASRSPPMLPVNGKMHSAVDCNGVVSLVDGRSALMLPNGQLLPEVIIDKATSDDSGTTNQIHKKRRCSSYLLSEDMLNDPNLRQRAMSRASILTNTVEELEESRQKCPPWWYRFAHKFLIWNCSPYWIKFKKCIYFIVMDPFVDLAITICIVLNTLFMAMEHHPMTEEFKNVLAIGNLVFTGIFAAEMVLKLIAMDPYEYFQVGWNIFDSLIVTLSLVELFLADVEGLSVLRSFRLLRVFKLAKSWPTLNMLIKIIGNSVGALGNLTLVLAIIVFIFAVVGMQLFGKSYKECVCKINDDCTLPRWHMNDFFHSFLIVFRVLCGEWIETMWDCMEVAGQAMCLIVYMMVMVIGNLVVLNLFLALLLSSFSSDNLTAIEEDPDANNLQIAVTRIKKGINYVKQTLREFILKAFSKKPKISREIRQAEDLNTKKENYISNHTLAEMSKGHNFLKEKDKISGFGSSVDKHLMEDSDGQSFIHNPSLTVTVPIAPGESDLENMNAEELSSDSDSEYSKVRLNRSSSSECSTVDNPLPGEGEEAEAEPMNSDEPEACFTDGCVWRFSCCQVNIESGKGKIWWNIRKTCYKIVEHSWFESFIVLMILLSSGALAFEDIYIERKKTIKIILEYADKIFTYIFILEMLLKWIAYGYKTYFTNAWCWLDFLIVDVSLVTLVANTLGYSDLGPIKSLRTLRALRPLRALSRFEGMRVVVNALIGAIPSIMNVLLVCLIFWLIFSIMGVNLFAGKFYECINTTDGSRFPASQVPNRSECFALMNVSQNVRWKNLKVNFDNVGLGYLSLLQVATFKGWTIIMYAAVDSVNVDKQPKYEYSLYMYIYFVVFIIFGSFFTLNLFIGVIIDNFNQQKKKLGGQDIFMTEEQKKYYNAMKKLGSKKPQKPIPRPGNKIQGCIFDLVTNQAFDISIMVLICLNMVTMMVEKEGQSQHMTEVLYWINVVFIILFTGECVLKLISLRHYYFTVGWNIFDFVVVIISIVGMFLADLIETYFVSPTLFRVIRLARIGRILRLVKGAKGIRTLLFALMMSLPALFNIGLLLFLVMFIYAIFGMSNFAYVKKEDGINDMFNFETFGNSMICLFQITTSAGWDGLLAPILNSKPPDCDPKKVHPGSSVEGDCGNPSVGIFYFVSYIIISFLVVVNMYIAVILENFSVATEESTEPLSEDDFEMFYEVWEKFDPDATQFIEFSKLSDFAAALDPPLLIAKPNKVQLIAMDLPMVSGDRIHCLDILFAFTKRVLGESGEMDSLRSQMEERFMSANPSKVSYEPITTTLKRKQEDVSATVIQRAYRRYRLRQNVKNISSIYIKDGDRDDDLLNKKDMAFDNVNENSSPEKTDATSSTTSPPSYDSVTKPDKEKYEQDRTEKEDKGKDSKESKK
Description: Test 1: Measurement of Na Ion Current in Voltage-Dependent Na Channel Gene Expressed Cell
Nav 1.7 current was measured by automated patch clamp assay using cells stably-expressing human SCN9A.
Cells Stably-Expressing Human SCN9A
Tetracycline-induced cells stably-expressing SCN9A were obtained from ChanTest Corporation. The cells were passaged in Ham's F-12 medium containing 10% fetal bovine serum, 100 units/mL Penicillin-Streptomycin, 0.01 mg/mL Blasticidin, and 0.4 mg/mL Zeocin. The day before the measurement, the medium was replaced with Ham's F-12 medium containing 1 μg/mL tetracycline, 100 μmol/L sodium butyrate, 10% fetal bovine serum, and 100 units/mL Penicillin-Streptomycin. Next day, the Na ion current was measured by automated patch clamp assay.
Electrophysiologic Measurement of Na Ion Current
The Na ion current was measured by automated patch clamp assay using the following extracellular solution and intracellular solution.
Extracellular solution (mmol/L): NaCl 130, MgCl2 2, CaCl2 2, CdCl2 0.1, NiCl2 0.1, Tetraethylammonium-Cl 18, 4-aminopyridine 1, HEPES 10, (adjusting pH 7.4 with NaOH)
Intracellular solution (mmol/L): CsF 120, EGTA 10, NaCl 15, HEPES 10, (adjusting pH 7.2 with CsOH)
The control of the stimulating pulse and the data acquisition were carried out using EPC10 amplifier and Patch Master Software (HEKA). Data were sampled at 10 kHz, and low-pass filtered at 3 kHz. All the measurements were carried out at room temperature. The holding potential was set at a potential inactivating 50% Nav 1.7 channel (around −60 mV), and depolarizing pulse of 20 milliseconds (+10 mV) was given once. […] The inhibitory rate of the Na ion current by the test compounds was calculated according to the following calculating formula with the peak current value generated by the depolarizing pulse. Inhibitory rate of Na ion current (%)=100×[(Peak current value in the absence of Test Compound)−(Peak current value in the presence of Test Compound)]/(Peak current value in the absence of Test Compound) Result: […]

[1] = test system: rats streptozotocin (STZ)-induced diabetic peripheral neuropathy model; experiment: Analgesic effect (von Frey test) in streptozotocin-induced diabetic peripheral neuropathic pain model; format: in vivo, rat; conditions: orally administered 3 mg/kg, one hour before measuring, male Wistar rats
Description: Test 2: Evaluation of Analgesic Effect in Streptozotocin-Induced Diabetic Peripheral Neuropathic Pain Models
Using some typical compounds among the compounds of the present invention, the inhibitory effect for neuropathic pain was determined through the evaluation of analgesic effect in rats streptozotocin (STZ)-induced diabetic peripheral neuropathy model.
The disease animal model was prepared by means of a partially-modified method of Fox et al. (Pain 81, 307-316, 1999). STZ was intraperitoneally administered to 9-week old male Wistar rats in 45 mg/kg of body weight to prepare animal model suffering from diabetic peripheral neuropathy.
The analgesic effect was evaluated by von Frey test. Specifically, mechanical sensitivity was measured by applying hairs (von Frey hair) to the plantar surface of the animal's hind paw, and then the reaction thresholds (50% paw withdrawal thresholds) for the mechanical stimulation was determined by using a formula based on Chaplan et al. (Journal of Neuroscience Methods 53, 55-63, 1994).
One and two days before evaluating the test compounds, the reaction thresholds were measured to obtain an average thereof, and the average value was used as a reference value obtained before the test compounds would be administered. […]
In the evaluation test of the test compounds, the reaction thresholds were measured after administering each test compound. […]

[2] = Metabolic stability test in liver microsome (human); format: in vitro ADME; conditions: NADPH, 37° C., 30 minutes, dealkyl metabolite product (Reference example 5-7) assayed
Description: (§1) Test 3: Metabolic Stability Test in Liver Microsome
(§2) To a solution obtained by mixing 4 μL of human or rat liver microsome (produced by Xenotech, 20 mg/mL), 100 μL of 100 mM phosphate buffer solution (pH 7.4), and 74 μL of ultrapure water were added 2 μL of 1 μM DMSO solution of the test compound and further 40 μL of 10 mM aqueous NADPH (produced by Oriental Yeast Co., ltd.), and then the mixture was incubated at 37° C. for 30 minutes. After the incubation, 50 μL of the reaction solution was added to methanol to cease the metabolic reaction. The quenched solution was centrifuged at 4° C. at 4500 rpm for 5 minutes, and the supernatant was filtrated. 100 μL of the supernatant was mixed with 100 μL of 10 mM aqueous ammonium acetate, and the mixture was analyzed with LC (Shimadzu, NexeraX2)-MS (AB Sciex, TripleTOF5600) to determine the amount of the corresponding metabolite product in the mixture.

[3] = Metabolic stability test in liver microsome (rat); format: in vitro ADME; conditions: NADPH, 37° C., 30 minutes, dealkyl metabolite product (Reference example 5-7) assayed
Description: as §1, §2

| Inhibitory rate (%) of Na ion current (human SCN9A (Nav 1.7)) | Rate of generating the metabolite product, human [2] | Rate of generating the metabolite product, rat [3] | inhibition at 10 µM (human SCN9A (Nav 1.7)) | Compound | extension width of reaction thresholds (50% paw withdrawal threshold, after minus before administration) [1] |
| --- | --- | --- | --- | --- | --- |
| 36% | 0.026 pmol/min/mg protein | 0.260 pmol/min/mg protein |  | 2-methyl-1-(6-{[5-(trifluoromethyl)pyridin-2-yl]oxy}-1H-benzimidazol-1-yl) (1,1-^2H2)propan-2-ol [Example 2] | 5.0 g |
| 40% | 0.069 pmol/min/mg protein | 0.40 pmol/min/mg protein |  | 4-[6-(4-chlorophenoxy)-1H-benzimidazol-1-yl]-2-methyl(4,4-^2H2)butan-2-ol [Example 3] |  |
|  |  |  | 68% | [2H]C([2H])(n1cnc2ccc(Oc3ccc(OC(F)(F)F)cc3)cc21)C1(O)COC1 [Example 4, 3-[{6-[4-(trifluoromethoxy)phenoxy]-1H-benzimidazol-1-yl}(^2H2)methyl]oxetan-3-ol] |  |
|  |  |  | 55% | [2H]C([2H])(n1cnc2ccc(-c3ccc(C(F)(F)F)cc3OC)cc21)C1(O)COC1 [Example 5, 3-[{6-[2-methoxy-4-(trifluoromethyl)phenyl]-1H-benzimidazol-1-yl}(^2H2)methyl]oxetan-3-ol] |  |

| Compound | Inhibitory rate (%) of Na ion current (human SCN9A (Nav 1.7)) | Rate of generating the metabolite product, human [2] | Rate of generating the metabolite product, rat [3] | inhibition at 10 µM (human SCN9A (Nav 1.7)) | extension width of reaction thresholds (50% paw withdrawal threshold, after minus before administration) [1] |
| --- | --- | --- | --- | --- | --- |
| 1-[6-(4-fluorophenoxy)-1H-benzimidazol-1-yl]-2-methyl (1,1-^2H2) propan-2-ol [Example 1] | 36% |  |  |  |  |
